# Measurements: publication PMC6539495, “Anti-Cancer Activity of Novel Dihydrotestosterone-Derived Ring A-Condensed Pyrazoles on Androgen Non-Responsive Prostate Cancer Cell Lines” (International Journal of Molecular Sciences, 2019)
# Assays:
# DU 145 cells = assay: MTT cell viability assay on DU 145 prostate cancer cells; format: cell-based, human; settings: 72 hours
# Method: (§1) HeLa, MCF-7 and MDA-MB-231 cells were obtained from Sigma-Aldrich and maintained as reported previously. MRC-5, PC-3, DU 145 cells were purchased from American Type Culture Collection (ATCC, Manassas, VA, USA). PC-3 and DU 145 were maintained in RPMI medium (Sigma-Aldrich) whereas MRC-5 cells were maintained in DMEM medium (Sigma-Aldrich). All media were complemented with 10% Fetal bovine serum (FBS, Sigma-Aldrich) 2 mM L-glutamine, 0.01% streptomycin and 0.005% ampicillin (Sigma-Aldrich). Cells were cultured under standard conditions in a 37 °C incubator containing 5% CO2 in 95% humidity.
# (§2) Each test compound was dissolved in cell culture grade DMSO (Molar Chemicals, Halásztelek, Hungary) in a final concentration of […]. Antiproliferative action of the synthesized steroids was investigated by MTT assay. An amount of 5000 cells/well were seeded into 96 well plates. Twenty-four hours post seeding, all cell lines were treated with each compound in 10 and 30 μM concentrations for 72 hours. […] After 72 hours, cells were washed with PBS and incubated with culture medium containing 0.5 mg/mL MTT (3-(4, 5-dimethylthiazolyl-2)-2,5-diphenyltetrazolium bromide) reagent (SERVA, GmbH, Heidelberg, Germany) for an hour at 37 °C. Formazan crystals were solubilized in DMSO and extinction was measured at 570 nm using a Synergy HTX plate reader (BioTech-Hungary, Budapest, Hungary). MTT assays were performed at least three times using four independent biological replicates. Data were normalized to solvent controls and the graphical representation of the obtained data as well as the calculation of IC50 values were carried out by GraphPad Prism 7 software (GraphPad Software; San Diego, CA, USA).
# MCF-7 cells = assay: MTT cell viability assay on MCF-7 breast cancer cells; format: cell-based, human; settings: 72 hours
# Method: as §1, §2
# MDA-MB-231 cells = assay: MTT cell viability assay on MDA-MB-231 breast cancer cells; format: cell-based, human; settings: 72 hours
# Method: as §1, §2
# HeLa cells = assay: MTT cell viability assay on HeLa cervical cancer cells; format: cell-based, human; settings: 72 hours
# Method: as §1, §2
# MRC-5 cells = assay: MTT cell viability assay on non-cancerous MRC-5 fibroblasts; format: cell-based; settings: 72 hours, MTT
# Method: as §1, §2
# PC-3 cells = assay: MTT cell viability assay on PC-3 prostate cancer cells; format: cell-based, human; settings: for antiproliferative potency against PC-3 prostate cancer cells compared to MRC-5 non-cancerous fibroblasts: primary screen
# Method: as §1, §2
Compound,"Mean values (%) of primary growth inhibitory screen (viability in %), DU 145 (DU 145 cells; 10 µM) [%]","Mean values (%) of primary growth inhibitory screen (viability in %), DU 145 (DU 145 cells; 30 µM) [%]","Mean values (%) of primary growth inhibitory screen (viability in %), MCF-7 (MCF-7 cells; 10 µM) [%]","Mean values (%) of primary growth inhibitory screen (viability in %), MCF-7 (MCF-7 cells; 30 µM) [%]","Mean values (%) of primary growth inhibitory screen (viability in %), MDA-MB-231 (MDA-MB-231 cells; 10 µM) [%]","Mean values (%) of primary growth inhibitory screen (viability in %), MDA-MB-231 (MDA-MB-231 cells; 30 µM) [%]","Mean values (%) of primary growth inhibitory screen (viability in %), HeLa (HeLa cells; 10 µM) [%]","Mean values (%) of primary growth inhibitory screen (viability in %), HeLa (HeLa cells; 30 µM) [%]","Mean values (%) of primary growth inhibitory screen (viability in %), MRC-5 (MRC-5 cells; 10 µM) [%]","Mean values (%) of primary growth inhibitory screen (viability in %), MRC-5 (MRC-5 cells; 30 µM) [%]","Mean values (%) of primary growth inhibitory screen (viability in %), PC-3 (PC-3 cells; 10 µM, 72 hours, MTT) [%]","Mean values (%) of primary growth inhibitory screen (viability in %), PC-3 (PC-3 cells; 30 µM, 72 hours, MTT) [%]",IC50 (DU 145 cells; ± SD) [µM],IC50 (MCF-7 cells; ± SD) [µM],IC50 (MDA-MB-231 cells; ± SD) [µM],IC50 (HeLa cells; ± SD) [µM],IC50 (MRC-5 cells; ± SD) [µM],antiproliferative potency against PC-3 prostate cancer cells compared to MRC-5 non-cancerous fibroblasts (PC-3 cells; 10 µM),antiproliferative potency against PC-3 prostate cancer cells compared to MRC-5 non-cancerous fibroblasts (PC-3 cells; 30 µM),"IC50 (PC-3 cells; MTT, 72 hours, ± SD) [µM]"
"Cc1ccc(-n2nc3c(c2C)CC2(C)C(CCC4C5CCC(=O)C5(C)CCC42)C3)cc1 (stereo not drawn) [5c, 1′-(4″-Tolyl)-5′-methylpyrazolo[3′,4′:3,2]-5α-androst-17-one]",86.3,51.1,63.6,48.7,78.7,66.2,46.3,38.5,89.1,62.5,68.1,43.6,–,–,–,–,–,–,–,–
"Cc1c2c(nn1-c1ccc([N+](=O)[O-])cc1)C[C@@H]1CC[C@@H]3[C@H](CC[C@]4(C)C(=O)CC[C@@H]34)[C@@]1(C)C2 [5j, 1′-(4″-Nitrophenyl)-5′-methylpyrazolo[3′,4′:3,2]-5α-androst-17-one]",73.0,42.8,46.5,14.4,83.5,71.7,47.4,29.4,94.8,44.6,36.8,16.0,13.5 ± 1.1,11.3 ± 2.8,> 30,10.4 ± 0.1,25.5 ± 2.3,significantly higher,significantly higher,6.7 ± 1.1
"Cc1ccccc1-n1nc2c(c1C)C[C@@]1(C)[C@@H](CC[C@@H]3[C@@H]1CC[C@]1(C)C(=O)CC[C@@H]31)C2 [5b, 1′-(2″-Tolyl)-5′-methylpyrazolo[3′,4′:3,2]-5α-androst-17-one]",82.3,58.4,59.3,63.6,83.0,76.9,65.5,66.8,93.2,66.2,62.3,43.2,–,–,–,–,–,–,significantly higher,–
"Cc1ccc(-n2nc3c(c2C)CC2(C)C(CCC4C5CCC(O)C5(C)CCC42)C3)cc1 (stereo not drawn) [4c, 17β-Hydroxy-1′-(4″-tolyl)-5′-methylpyrazolo[3′,4′:3,2]-5α-androstane]",87.3,5.1,49.5,5.4,81.7,12.0,56.1,8.0,75.0,37.5,44.0,4.2,–,–,–,–,–,significantly higher,–,–
"COc1ccc(-n2nc3c(c2C)C[C@@]2(C)[C@@H](CC[C@@H]4[C@@H]2CC[C@]2(C)C(=O)CC[C@@H]42)C3)cc1 [5e, 1′-(4″-Methoxyphenyl)-5′-methylpyrazolo[3′,4′:3,2]-5α-androst-17-one]",62.1,48.1,53.5,36.3,72.0,61.5,38.4,41.8,79.3,79.3,45.5,29.7,–,–,–,–,–,–,significantly higher,–
"Cc1ccccc1-n1nc2c(c1C)C[C@@]1(C)[C@@H](CC[C@@H]3[C@@H]1CC[C@]1(C)[C@@H](O)CC[C@@H]31)C2 [4b, 17β-Hydroxy-1′-(2″-tolyl)-5′-methylpyrazolo[3′,4′:3,2]-5α-androstane]",61.1,48.3,39.1,32.4,69.0,64.0,36.0,34.1,72.9,64.2,67.5,54.7,–,–,–,–,–,significantly higher,–,–
"Cc1ccc(-n2nc3c(c2C)C[C@@]2(C)[C@@H](CC[C@@H]4[C@@H]2CC[C@]2(C)C(=O)CC[C@@H]42)C3)c(C)c1 [5d, 1′-(2″,4″-Dimethylphenyl)-5′-methylpyrazolo[3′,4′:3,2]-5α-androst-17-one]",65.6,10.0,56.3,13.3,77.2,54.1,39.5,30.7,80.1,21.3,52.1,14.6,–,–,–,–,–,–,–,–
